For this assay, the system named is Trypanosoma brucei Lister 427 VSG221 with APOL1 G2 recombinant protein. Briefly: APOL1 G2 trypanosome cell rescue assay (Example B5). The note with it: geometric mean of at least 2 assay runs, † = single assay run. The assay is classed as cell-based. In short, it runs like this:
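Recombinant APOL1 protein, dispensed from a 2 μg/mL stock, and 250 T. brucei per well were co-incubated with test compound (0.4% DMSO) for 20 h. Viability: CellTiter-Glo luminescence.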

Setting [1] is: Trypanosoma brucei, 20 h, read-out: APOL1 G2 Trypanosome Rescue EC50, Trypanosoma brucei Lister 427 VSG221 with APOL1 G2 recombinant protein, 20 hours, CellTiter-Glo.
Where [2] appears, read: read-out: APOL1 G2 Trypanosome Rescue EC50, Trypanosoma brucei Lister 427 VSG221 with APOL1 G2 recombinant protein, 20 hours, CellTiter-Glo.

Molecules are shown by their SMILES. Like-named read-outs stand apart in the source and are kept apart here.

As a reminder, the EC50 is the concentration at which the effect is half-maximal. Take `CS(=O)(=O)C1(c2ccc(OCCN3CCC4(CC3)C(=O)N(CC(F)(F)F)c3ccc(C#N)cc34)cc2)COC1` [Compound 184, 1′-{2-[4-(3-methanesulfonyloxetan-3-yl)phenoxy]ethyl}-2-oxo-1-(2,2,2-trifluoroethyl)-1,2-dihydrospiro[indole-3,4′-piperidine]-5-carbonitrile]: the concentration for a half-maximal effect (EC50) under setting [1] is 585 nM.

As for `CC(c1ccc(OCCN2CCC3(CC2)C(=O)Nc2ccc(C#N)cc23)cc1)S(C)(=O)=O` (single isomer, unassigned) [Compound 135, (R) or (S)-1′-{2-[4-(1-methanesulfonylethyl)phenoxy]ethyl}-2-oxo-1,2-dihydrospiro[indole-3,4′-piperidine]-5-carbonitrile], the EC50 under setting [2] amounted to 303 nM.

`C[C@@H](CN1CCC2(CC1)C(=O)Nc1ccccc12)Oc1ccc(S(C)(=O)=O)cc1` (single isomer, unassigned) [Compound 13]: the half-maximal effective concentration (EC50) under setting [1] was over 4000 nM.

Turning to `Cc1cc(OCCN2CCC3(CC2)C(=O)Nc2ccc(Cl)cc23)ccc1S(C)(=O)=O` [Compound 110, 5-chloro-1′-[2-(4-methanesulfonyl-3-methylphenoxy)ethyl]-1,2-dihydrospiro[indole-3,4′-piperidin]-2-one], the EC50 under setting [1] stood at 26.1 nM.

As for `O=C1CCC2c3ccc(OCCN4CCC5(CC4)C(=O)Nc4ccc(Cl)cc45)cc3CCN12` (single isomer, unassigned) [Compound 123, (R) or (S)-5-chloro-1′-[2-({3-oxo-1H,2H,3H,5H,6H,10bH-pyrrolo[2,1-a]isoquinolin-8-yl}oxy)ethyl]-1,2-dihydrospiro[indole-3,4′-piperidin]-2-one], the EC50 under setting [2] is 76.9 nM.

For `CN1C(=O)C2(CCN(CCOc3cc(F)c(C4(S(C)(=O)=O)COC4)c(F)c3)CC2)c2cc(C#N)ccc21` [Compound 189, 1′-{2-[3,5-difluoro-4-(3-methanesulfonyloxetan-3-yl)phenoxy]ethyl}-1-methyl-2-oxo-1,2-dihydrospiro[indole-3,4′-piperidine]-5-carbonitrile], under setting [1], the 50% effective concentration (EC50) worked out at 61.4 nM.

For `CS(=O)(=O)C1(c2ccc(OCCN3CCC4(CC3)C(=O)Nc3ccc(Cl)cc34)cc2)CC2(COC2)C1` [Compound 182, 5-chloro-1′-[2-(4-{6-methanesulfonyl-2-oxaspiro[3.3]heptan-6-yl}phenoxy)ethyl]-1,2-dihydrospiro[indole-3,4′-piperidin]-2-one], the EC50 under setting [1] was determined as 138 nM.

As for `CC1(S(=O)(=O)c2ccc(OCCN3CCC4(CC3)C(=O)Nc3ccc(Cl)cc34)cn2)COC1` [Compound 158, 5-chloro-1′-[2-({6-[(3-methyloxetan-3-yl)sulfonyl]pyridin-3-yl}oxy)ethyl]-1,2-dihydrospiro[indole-3,4′-piperidin]-2-one], under setting [1], the EC50 amounted to 45.9 nM.

For the compound `O=C1CCc2cc(OCCN3CCC4(CC3)C(=O)Nc3ccc(Cl)cc34)ccc2N1C1COC1` [Compound 99, 5-chloro-1′-(2-{[1-(oxetan-3-yl)-2-oxo-1,2,3,4-tetrahydroquinolin-6-yl]oxy}ethyl)-1,2-dihydrospiro[indole-3,4′-piperidin]-2-one], under setting [1], the EC50 is 90.1 nM.

Turning to `CN=S(C)(=O)c1ccc(OCCN2CCC3(CC2)C(=O)Nc2ccc(Cl)cc23)cc1` (centres unmarked) [Compound 147, 5-chloro-1′-(2-{4-[methyl(methylimino)oxo-λ^6-sulfanyl]phenoxy}ethyl)-1,2-dihydrospiro[indole-3,4′-piperidin]-2-one], the 50% effective concentration (EC50) under setting [1] came out at 65.4 nM.

Consider `O=C1Nc2ccc(Cl)cc2C12CCN(CCOc1ccc(C3CCCS3(=O)=O)cc1)CC2` (single isomer, unassigned) [Compound 177, (R) or (S)-2-[4-(2-{5-chloro-2-oxo-1,2-dihydrospiro[indole-3,4′-piperidin]-1′-yl}ethoxy)phenyl]-1λ^6-thiolane-1,1-dione], for which the EC50 under setting [2] was 84.4 nM.

With `O=C1Nc2ccc(Cl)cc2C12CCN(CCOc1ccc3c(cnn3C3COC3)c1)CC2` [Compound 15, 5-chloro-1′-(2-{[1-(oxetan-3-yl)-1H-indazol-5-yl]oxy}ethyl)-1,2-dihydrospiro[indole-3,4′-piperidin]-2-one], the EC50 under setting [1] amounted to 124 nM.

In the case of `CN=S(C)(=O)c1ccc(OCCN2CCC3(CC2)C(=O)Nc2ccc(Cl)cc23)cc1` (single isomer, unassigned) [Compound 149, (R) or (S)-5-chloro-1′-(2-{4-[methyl(methylimino)oxo-λ^6-sulfanyl]phenoxy}ethyl)-1,2-dihydrospiro[indole-3,4′-piperidin]-2-one], under setting [2], the concentration for a half-maximal effect (EC50) amounted to 51.8 nM.

`CS(=O)(=O)C1(c2ccc(OCCN3CCC4(CC3)C(=O)Nc3ccc(Cl)cc34)cc2)CCOCC1` [Compound 188, 5-chloro-1′-{2-[4-(4-methanesulfonyloxan-4-yl)phenoxy]ethyl}-1,2-dihydrospiro[indole-3,4′-piperidin]-2-one]: the EC50 under setting [1] came out at 26.7 nM.

Take `CN1c2ccc(OCCN3CCC4(CC3)C(=O)Nc3ccc(C#N)cc34)cc2CCS1(=O)=O` [Compound 104, 1′-{2-[(1-methyl-2,2-dioxo-3,4-dihydro-1H-2λ^6,1-benzothiazin-6-yl)oxy]ethyl}-2-oxo-1,2-dihydrospiro[indole-3,4′-piperidine]-5-carbonitrile]: under setting [1], the concentration for a half-maximal effect (EC50) was 184 nM.

Turning to `Cc1cc(OCCN2CCC3(CC2)C(=O)Nc2ccc(Cl)cc23)cc(C)c1S(C)(=O)=O` [Compound 129, 5-chloro-1′-[2-(4-methanesulfonyl-3,5-dimethylphenoxy)ethyl]-1,2-dihydrospiro[indole-3,4′-piperidin]-2-one], under setting [1], the EC50 stood at 22.2 nM.

Take `C[C@@H](COc1ccc(S(C)(=O)=O)cc1)N1CCC2(CC1)C(=O)Nc1ccccc12` (single isomer, unassigned) [Compound 12]: the EC50 under setting [1] is 494 nM.

Take `CS(=O)(=O)C1(c2ccc(OCCN3CCC4(CC3)C(=O)Nc3ccc(C#N)cc34)cc2)CCC1` [Compound 181, 1′-{2-[4-(1-methanesulfonylcyclobutyl)phenoxy]ethyl}-2-oxo-1,2-dihydrospiro[indole-3,4′-piperidine]-5-carbonitrile]: the concentration giving a half-maximal response (EC50) under setting [1] was 70.7 nM.

Consider `N#Cc1ccc2c(c1)C1(CCN(CCOc3ccc4c(c3)CCN3C(=O)NCC43)CC1)C(=O)N2` (single isomer, unassigned) [Compound 120, (R) or (S)-2-oxo-1′-[2-({3-oxo-1H,2H,3H,5H,6H,10bH-imidazo[4,3-a]isoquinolin-8-yl}oxy)ethyl]-1,2-dihydrospiro[indole-3,4′-piperidine]-5-carbonitrile], for which, under setting [1], the 50% effective concentration (EC50) was 346 nM.

For `O=C1Nc2ccc(Cl)cc2C12CCN(CCOc1ccc(S(=O)(=O)[C@H]3C[C@@H](O)C3)cc1)CC2` [Compound 17, 5-chloro-1′-[2-(4-{[(cis)-3-hydroxycyclobutyl]sulfonyl}phenoxy)ethyl]-1,2-dihydrospiro[indole-3,4′-piperidin]-2-one], the EC50 under setting [1] is 36.7 nM.

For `N#Cc1ccc2c(c1)C1(CCN(CCOc3ccc4c(c3)CCC(=O)N4CC(F)F)CC1)C(=O)N2` [Compound 105, 1′-(2-{[1-(2,2-difluoroethyl)-2-oxo-1,2,3,4-tetrahydroquinolin-6-yl]oxy}ethyl)-2-oxo-1,2-dihydrospiro[indole-3,4′-piperidine]-5-carbonitrile], under setting [1], the EC50 amounted to 75.2 nM.

In the case of `CS(=O)(=O)c1ccc(OCCN2CCC3(CC2)C(=O)Nc2ccc(Cl)cc23)cc1Cl` [Compound 155, 5-chloro-1′-[2-(3-chloro-4-methanesulfonylphenoxy)ethyl]-1,2-dihydrospiro[indole-3,4′-piperidin]-2-one], the EC50 under setting [1] was found to be 9.65 nM.

On to `CC(c1c(F)cc(OCCN2CCC3(CC2)C(=O)Nc2ccc(Cl)cc23)cc1F)S(C)(=O)=O` (single isomer, unassigned) [Compound 143, (R) or (S)-5-chloro-1′-{2-[3,5-difluoro-4-(1-methanesulfonylethyl)phenoxy]ethyl}-1,2-dihydrospiro[indole-3,4′-piperidin]-2-one], for which, under setting [2], the EC50 was 21.1 nM.

For `O=C1Nc2ccc(Cl)cc2C12CCN(CCOc1ccc3c(c1)CCNS3(=O)=O)CC2` [Compound 167, 6-(2-{5-chloro-2-oxo-1,2-dihydrospiro[indole-3,4′-piperidin]-1′-yl}ethoxy)-3,4-dihydro-2H-1λ^6,2-benzothiazine-1,1-dione], the EC50 under setting [1] is 35 nM.

For `CS(=O)(=O)c1ccc(OCCN2CCC3(CC2)C(=O)Nc2ccc(Cl)cc23)cc1OC(F)F` [Compound 163, 5-chloro-1′-{2-[3-(difluoromethoxy)-4-methanesulfonylphenoxy]ethyl}-1,2-dihydrospiro[indole-3,4′-piperidin]-2-one], the EC50 under setting [1] came out at 21.2 nM.

With `CS(=O)(=O)CCCn1ncc2cc(OCCN3CCC4(CC3)C(=O)Nc3ccc(Cl)cc34)ccc21` [Compound 14, 5-chloro-1′-(2-{[1-(3-methanesulfonylpropyl)-1H-indazol-5-yl]oxy}ethyl)-1,2-dihydrospiro[indole-3,4′-piperidin]-2-one], the EC50 under setting [1] was 127 nM.

Consider `CC(c1c(F)cc(OCCN2CCC3(CC2)C(=O)Nc2ccc(C#N)cc23)cc1F)S(C)(=O)=O` (centres unmarked) [Compound 137, 1′-{2-[3,5-difluoro-4-(1-methanesulfonylethyl)phenoxy]ethyl}-2-oxo-1,2-dihydrospiro[indole-3,4′-piperidine]-5-carbonitrile], for which, under setting [1], the EC50 is 119 nM.

With `CS(=O)(=O)c1ccc(OCCN2CCC3(CC2)C(=O)Nc2ccc(C#N)cc23)cc1Cl` [Compound 156, 1′-[2-(3-chloro-4-methanesulfonylphenoxy)ethyl]-2-oxo-1,2-dihydrospiro[indole-3,4′-piperidine]-5-carbonitrile], the EC50 under setting [1] is 44.8 nM.

As for `CCS(=O)(=O)C1(c2ccc(OCCN3CCC4(CC3)C(=O)Nc3ccc(C#N)cc34)cc2)COC1` [Compound 174, 1′-(2-{4-[3-(ethanesulfonyl)oxetan-3-yl]phenoxy}ethyl)-2-oxo-1,2-dihydrospiro[indole-3,4′-piperidine]-5-carbonitrile], under setting [1], the EC50 was 137 nM.

Source of the values: patent US12344610B2, “APOL1 inhibitors and methods of use” (Maze Therapeutics, Inc., priority 2022, dated 2025).
